Drawing on patent US5952473A, “Reagent and kit for determining isoprenylating activity and inhibition thereof” (priority 1993, dated 1999), this text covers IC50 for 1 molecule.

Each structure is given as a SMILES string.

The target in the experiment is T1, protein:farnesyl transferase (Oryctolagus cuniculus, UniProt G1SFC8+G1T7D9).
T1 construct: immobilised CAAX peptide A and 3H-FPP as substrates
In words: Inhibition of protein:farnesyl transferase activity in rabbit reticulocyte lysate (pepAsep/pepBsep, 3H-FPP). It counts as biochemical. Conditions: read-out: IC50 -value, 80 pmol peptide on Sepharose beads, 0.7 μM 3H-FPP, 30 min, 37° C., pepAsep minus pepBsep dpm. How it is done:
Commercially available rabbit reticulocyte lysate contains enzymes necessary for protein-isoprenylation, such as protein:farnesyl transferase activity (Vorburger, K., Kitten, G. T. and Nigg, E. G., EMBO J. 8 (1989) 4007-4013) and protein:geranylgeranyl transferase (Maltese, W. A. and Robishaw, J. D., J. Biol. Chem. 265 (1990) 18071-18074). Using pepAsep (example I) as substrate and pepBsep (example I) as control the assay of protein:farnesyl transferase activity was performed as follows: In 25 μl of a mixture containing 5 μl of pepAsep or pepBsep (both containing an equal quantity of peptide), 13 μl rabbit reticulocyte lysate (promega), 0.5 mM MgCl2, 1 mM DTT, 50 mM Tris-HCl (pH 7.4) and [^3 H]-farnesyl pyrophosphate (^3 H-FPP; concentration as indicated in the figures; specific radioactivity 15 Ci/mmol; ARC, USA) the incubation was performed at 37° C. for 30 min with continuous shaking. […] The radioactivity bound to the Sepharose was measured in a Packaged Tricarb liquid scintillation counter. […]
80 pmol of pepAsep and pepBsep/5 μl Sepharose were incubated for 30 minutes in the presence of 0.7 μM of [^3 H]-FPP and the indicated concentrations of the farnesyl pyrophosphate analogues FPPA1 and FPPA2 as mentioned in Example IV. The farnesylation activity was calculated as ^3 H-dpm bound to pepAsep minus the pepBsep-bound-dpm and expressed as percentage of control (without inhibitor).

For `CC(C)=CCCC(C)=CCCC(C)=CCP(=O)(O)OP(=O)(O)O` [FPPA2, farnesyl phosphonophosphate], the IC50 is 290 ± 20 nM.
